# Experimental data reported in ChEMBL document CHEMBL4020788, “Synthesis, SAR and molecular docking studies of benzo[d]thiazole-hydrazones as potential antibacterial and antifungal agents” (2017).
# The source made the active and inactive calls. The calls are words filed in the database; no cut-off is given here.
# Experiments:
# Assay type in all cases: functional
# [1] = system: Staphylococcus aureus; experiment: Antibacterial activity against Staphylococcus aureus at 50 ug/ml after 24 hrs by agar well diffusion method; conditions: read-out: DIZ
# [2] = system: Fusarium verticillioides; experiment: Antifungal activity against Fusarium moniliforme at 75 ug/ml after 48 hrs by agar well diffusion method; conditions: read-out: DIZ
# [3] = system: Bacillus subtilis; experiment: Antibacterial activity against Bacillus subtilis at 50 ug/ml after 24 hrs by agar well diffusion method; conditions: read-out: DIZ
# [4] = system: Klebsiella pneumoniae; experiment: Antibacterial activity against Klebsiella pneumoniae at 25 ug/ml after 24 hrs by agar well diffusion method; conditions: read-out: DIZ
# [5] = system: Aspergillus niger; experiment: Antifungal activity against Aspergillus niger at 100 ug/ml after 48 hrs by agar well diffusion method; conditions: read-out: DIZ
# [6] = system: Aspergillus niger; experiment: Antifungal activity against Aspergillus niger at 75 ug/ml after 48 hrs by agar well diffusion method; conditions: read-out: DIZ
# [7] = system: Escherichia coli; experiment: Antibacterial activity against Escherichia coli at 75 ug/ml after 24 hrs by agar well diffusion method; conditions: read-out: DIZ
# [8] = system: Aspergillus niger; experiment: Antifungal activity against Aspergillus niger at 50 ug/ml after 48 hrs by agar well diffusion method; conditions: read-out: DIZ
# [9] = system: Staphylococcus aureus; experiment: Antibacterial activity against Staphylococcus aureus at 100 ug/ml after 24 hrs by agar well diffusion method; conditions: read-out: DIZ
# [10] = system: Aspergillus niger; experiment: Antifungal activity against Aspergillus niger at 25 ug/ml after 48 hrs by agar well diffusion method; conditions: read-out: DIZ
# [11] = system: Escherichia coli; experiment: Antibacterial activity against Escherichia coli at 100 ug/ml after 24 hrs by agar well diffusion method; conditions: read-out: DIZ
# [12] = system: Staphylococcus aureus; experiment: Antibacterial activity against methicillin resistant Staphylococcus aureus MRSA090 at 100 ug/ml after 24 hrs by agar well diffusion method; conditions: MRSA090, 24 h, read-out: DIZ
# [13] = system: Bacillus subtilis; experiment: Antibacterial activity against Bacillus subtilis at 25 ug/ml after 24 hrs by agar well diffusion method; conditions: for zone of inhibition at 25 µg/mL: read-out: DIZ
# [14] = system: Fusarium oxysporum; experiment: Antifungal activity against Fusarium oxysporum at 75 ug/ml after 48 hrs by agar well diffusion method; conditions: read-out: DIZ
# [15] = system: Klebsiella pneumoniae; experiment: Antibacterial activity against Klebsiella pneumoniae at 100 ug/ml after 24 hrs by agar well diffusion method; conditions: read-out: DIZ
# [16] = system: Fusarium verticillioides; experiment: Antifungal activity against Fusarium moniliforme at 50 ug/ml after 48 hrs by agar well diffusion method; conditions: for zone of inhibition at 50 µg/mL: read-out: DIZ
# [17] = system: Klebsiella pneumoniae; experiment: Antibacterial activity against Klebsiella pneumoniae at 75 ug/ml after 24 hrs by agar well diffusion method; conditions: read-out: DIZ
# [18] = system: Staphylococcus aureus; experiment: Antibacterial activity against methicillin resistant Staphylococcus aureus MRSA090 at 50 ug/ml after 24 hrs by agar well diffusion method; conditions: MRSA090, 24 h, read-out: DIZ
# [19] = system: Staphylococcus aureus; experiment: Antibacterial activity against methicillin resistant Staphylococcus aureus MRSA090 at 25 ug/ml after 24 hrs by agar well diffusion method; conditions: MRSA090, 24 h, read-out: DIZ
# [20] = system: Fusarium verticillioides; experiment: Antifungal activity against Fusarium moniliforme at 100 ug/ml after 48 hrs by agar well diffusion method; conditions: read-out: DIZ
# [21] = system: Staphylococcus aureus; experiment: Antibacterial activity against Staphylococcus aureus at 75 ug/ml after 24 hrs by agar well diffusion method; conditions: read-out: DIZ
# [22] = system: Fusarium oxysporum; experiment: Antifungal activity against Fusarium oxysporum at 50 ug/ml after 48 hrs by agar well diffusion method; conditions: read-out: DIZ
# [23] = system: Staphylococcus aureus; experiment: Antibacterial activity against methicillin resistant Staphylococcus aureus MRSA090 at 75 ug/ml after 24 hrs by agar well diffusion method; conditions: MRSA090, 24 h, read-out: DIZ
# [24] = system: Bacillus subtilis; experiment: Antibacterial activity against Bacillus subtilis at 100 ug/ml after 24 hrs by agar well diffusion method; conditions: read-out: DIZ
# [25] = system: Staphylococcus aureus; experiment: Antibacterial activity against Staphylococcus aureus at 25 ug/ml after 24 hrs by agar well diffusion method; conditions: read-out: DIZ
# [26] = system: Klebsiella pneumoniae; experiment: Antibacterial activity against Klebsiella pneumoniae at 50 ug/ml after 24 hrs by agar well diffusion method; conditions: read-out: DIZ
# [27] = system: Escherichia coli; experiment: Antibacterial activity against Escherichia coli at 50 ug/ml after 24 hrs by agar well diffusion method; conditions: read-out: DIZ
# [28] = system: Fusarium verticillioides; experiment: Antifungal activity against Fusarium moniliforme at 25 ug/ml after 48 hrs by agar well diffusion method; conditions: for zone of inhibition at 25 µg/mL: read-out: DIZ
# [29] = system: Fusarium oxysporum; experiment: Antifungal activity against Fusarium oxysporum at 25 ug/ml after 48 hrs by agar well diffusion method; conditions: read-out: DIZ
# [30] = system: Escherichia coli; experiment: Antibacterial activity against Escherichia coli at 25 ug/ml after 24 hrs by agar well diffusion method; conditions: read-out: DIZ
# [31] = system: Bacillus subtilis; experiment: Antibacterial activity against Bacillus subtilis at 75 ug/ml after 24 hrs by agar well diffusion method; conditions: read-out: DIZ
# [32] = system: Fusarium oxysporum; experiment: Antifungal activity against Fusarium oxysporum at 100 ug/ml after 48 hrs by agar well diffusion method; conditions: read-out: DIZ
SMILES,zone of inhibition at 50 µg/mL [1],zone of inhibition at 75 µg/mL [2],zone of inhibition at 50 µg/mL [3],zone of inhibition at 25 µg/mL [4],zone of inhibition at 100 µg/mL [5],zone of inhibition at 75 µg/mL [6],zone of inhibition at 75 µg/mL [7],zone of inhibition at 50 µg/mL [8],zone of inhibition at 100 µg/mL [9],zone of inhibition at 25 µg/mL [10],zone of inhibition at 100 µg/mL [11],zone of inhibition at 100 µg/mL [12],zone of inhibition at 75 µg/mL [14],zone of inhibition at 100 µg/mL [15],zone of inhibition at 75 µg/mL [17],zone of inhibition at 50 µg/mL [18],zone of inhibition at 25 µg/mL [19],zone of inhibition at 100 µg/mL [20],zone of inhibition at 75 µg/mL [21],zone of inhibition at 50 µg/mL [22],other results
Cc1cccc2nc(N/N=C/c3ccc(F)cc3)sc12,12 mm,21 mm,9 mm,6 mm,22 mm,18 mm,14 mm,13 mm,18 mm,10 mm,17 mm,19 mm,18 mm,19 mm,16 mm,12 mm,8 mm,30 mm,16 mm,13 mm,zone of inhibition at 25 µg/mL [13]: 6 mm; zone of inhibition at 50 µg/mL [16]: 18 mm; zone of inhibition at 75 µg/mL [23]: 16 mm; zone of inhibition at 100 µg/mL [24]: 14 mm; zone of inhibition at 25 µg/mL [25]: 9 mm; zone of inhibition at 50 µg/mL [26]: 11 mm; zone of inhibition at 50 µg/mL [27]: 9 mm; zone of inhibition at 25 µg/mL [28]: 14 mm; zone of inhibition at 25 µg/mL [29]: 10 mm; zone of inhibition at 25 µg/mL [30]: 5 mm; zone of inhibition at 75 µg/mL [31]: 12 mm; zone of inhibition at 100 µg/mL [32]: 21 mm
Cc1cccc2nc(N/N=C/c3ccc([N+](=O)[O-])cc3)sc12,9 mm,4 mm,4 mm,7 mm,21 mm,17 mm,11 mm,13 mm,14 mm,6 mm,14 mm,16 mm,14 mm,16 mm,14 mm,7 mm,3 mm,8 mm,12 mm,10 mm,diameter of the inhibition zone (DIZ) [13]: inactive; diameter of the inhibition zone (DIZ) [16]: inactive; zone of inhibition at 75 µg/mL [23]: 10 mm; zone of inhibition at 100 µg/mL [24]: 11 mm; zone of inhibition at 25 µg/mL [25]: 7 mm; zone of inhibition at 50 µg/mL [26]: 11 mm; zone of inhibition at 50 µg/mL [27]: 18 mm; diameter of the inhibition zone (DIZ) [28]: inactive; zone of inhibition at 25 µg/mL [29]: 6 mm; zone of inhibition at 25 µg/mL [30]: 4 mm; zone of inhibition at 75 µg/mL [31]: 8 mm; zone of inhibition at 100 µg/mL [32]: 21 mm
COc1cc(/C=N/Nc2nc3cccc(C)c3s2)cc(Br)c1O,10 mm,17 mm,9 mm,9 mm,18 mm,16 mm,19 mm,11 mm,16 mm,7 mm,21 mm,20 mm,17 mm,21 mm,17 mm,13 mm,7 mm,20 mm,13 mm,14 mm,zone of inhibition at 25 µg/mL [13]: 5 mm; zone of inhibition at 50 µg/mL [16]: 13 mm; zone of inhibition at 75 µg/mL [23]: 19 mm; zone of inhibition at 100 µg/mL [24]: 17 mm; zone of inhibition at 25 µg/mL [25]: 8 mm; zone of inhibition at 50 µg/mL [26]: 14 mm; zone of inhibition at 50 µg/mL [27]: 15 mm; zone of inhibition at 25 µg/mL [28]: 9 mm; zone of inhibition at 25 µg/mL [29]: 8 mm; zone of inhibition at 25 µg/mL [30]: 11 mm; zone of inhibition at 75 µg/mL [31]: 13 mm; zone of inhibition at 100 µg/mL [32]: 20 mm
